The assay has as its system CEM cells HIV-1 protection, formazan growth assay. The assay can be described thus: NCI AIDS Antiviral Assay. The following applies: for IC50: measured here: growth of uninfected CEM cells. An outline of the steps:
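Five concentrations of each compound were applied to infected and uninfected human CEM cells. Protection from HIV-1 was judged from growth measured with a soluble formazan assay.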

Values joined by “and” are separate entries in the source; they are usually repeats but may differ in a detail not shown here. Equal entries are not always repeated. Active and inactive are the calls of the source.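 How the source made its calls: active means compounds giving half or more protection of infected cells from virus-caused growth loss, again on retest; inactive means the rest.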

Turning to `S=C(SSC(=S)N1CCOCC1)N1CCOCC1`, the EC50 was over 20 µM and the IC50 amounted to 0.724 µM.

For `O=C(CC/C=C(/CS(=O)(=O)c1ccccc1)S(=O)(=O)c1ccccc1)c1ccccc1`, the EC50 was over 100 µM and the IC50 was over 100 µM.

As to `Clc1cccc(Cl)c1C1CSc2ccccc2N=C1c1ccccc1` (configuration not stated), the EC50 was over 57.5 µM and the IC50 was 7.24 µM.

On to `COC(c1ccsc1)C(C#N)(C#N)N=Cc1ccsc1` (configuration not stated), for which the EC50 is over 200 µM and the IC50 amounted to 16.2 µM.

On to `Cc1cc(O)c2c(c1)C(=O)c1cc(O)cc(O)c1C2=O`, for which the outcome was inactive.

`CSc1nc2c(c(=O)[nH]1)N=C(c1ccccc1)CC(c1ccccc1)N2` (configuration not stated): the result was inactive.

`CCOC(=O)c1sc2nc(SC)nc3c2c1N=CN3c1ccccc1Cl`: the EC50 was over 100 µM and the IC50 is over 100 µM.

As to `COc1ccc2nc(NC(=O)C(=O)NNC(=O)c3ccncc3)sc2c1`, the EC50 is over 174 µM and the IC50 is 16.2 µM.

Turning to `O=S(=O)(Nc1nc2ccccc2nc1Nc1cccc2ccccc12)c1ccccc1`, the EC50 was over 200 µM and the IC50 was found to be 15.8 µM.

As for `COc1ccc(-c2cc(=O)c3c(OC)c(O)c(OC)cc3o2)cc1`, the EC50 was over 200 µM and the IC50 was 38.9 µM.

For `CCC(=O)NC(Nc1cc(C)on1)(C(F)(F)F)C(F)(F)F`, the EC50 was over 200 µM and the IC50 was over 200 µM.

With `CC[C@@]1(C(=O)OC)C=CCN2C(=O)OC(C)(C)C21` (some centres not stated), the result was inactive.

In the case of `COc1ccc(NC(=O)C(=O)C(C(=O)c2ccccc2)C2OC(=O)c3ccccc32)c([N+](=O)[O-])c1` (configuration not stated), the EC50 is over 135 µM and the IC50 was over 135 µM.

On to `C=CC1(c2ccc3ccccc3c2)OCC(CC)(CC)CO1`, for which the EC50 was over 200 µM and the IC50 stood at 79.4 µM.

In the case of `C=CCCC[P+](c1ccccc1)(c1ccccc1)c1ccccc1`, the EC50 was over 200 µM and the IC50 amounted to 1.15 µM.

With `Cc1cc(Cl)ccc1NC(=O)C(=O)Cc1nc2ccc(C(=O)c3ccccc3)cc2[nH]c1=O`, the EC50 was over 77.6 µM and the IC50 is over 77.6 µM.

With `C=C1C(=O)OC2/C=C(\C)CC/C=C(\C)CC(OC(=O)/C(=C/CO)CO)[C@@H]12` (some centres not stated), the EC50 is over 200 µM and the IC50 was 0.933 µM.

Take `CC1=C(C(=O)Nc2ccc([N+](=O)[O-])cc2)C(c2ccc(N(C)C)cc2)C(C(=O)Nc2ccc([N+](=O)[O-])cc2)=C(C)N1`: the EC50 is over 17.8 µM and the IC50 is over 17.8 µM.

Regarding `CCOC(=O)CC(C#N)(CC(=O)OCC)C(=O)OCC`, the result was inactive.

As to `O=c1[nH]c2c(cnn2-c2ccccc2)c(=O)n1O`, the EC50 was over 200 µM and the IC50 is over 200 µM.

With `CCC1CCc2c(c(=O)oc3c2cc(OC)c2cccc(OC)c23)C1` (configuration not stated), the EC50 is over 110 µM and the IC50 stood at 87.1 µM.

Turning to `O=Cc1cc2c(cc1-c1cc3c(cc1C=O)OCO3)OCO2`, the EC50 is over 107 µM and the IC50 is over 107 µM.

With `CCCN(CCC)C(=S)N/N=C(/C)c1ccccc1O`, the EC50 is over 200 µM and the IC50 amounted to 15.8 µM.

Turning to `CC1C(=O)N2C(=O)C(C)C(C)C(=O)N2C(=O)C1C` (configuration not stated), the EC50 was over 53.7 µM and the IC50 is over 53.7 µM.

For `NC(=S)N/N=C1\CCc2ccccc2C1`, the EC50 was over 575 µM and the IC50 was 15.8 µM.

Take `OCC(O)C1OC2CC1Nc1ccccc1N2` (configuration not stated): the EC50 was over 200 µM and the IC50 was 97.7 µM.

As to `O=C(/C=C/c1ccsc1)c1ccc(Cl)s1`, the EC50 is over 200 µM.

Consider `CC1(C)OOC(O)C=C1c1ccccc1` (configuration not stated), for which the EC50 was over 126 µM and the IC50 was over 126 µM.

As for `COC(=O)[C@H](Cc1ccccc1)NC(=O)NCCN(CCNC(=O)N[C@@H](Cc1ccccc1)C(=O)OC)C(=O)N[C@@H](Cc1ccccc1)C(=O)OC`, the EC50 was over 200 µM and the IC50 turned out to be 33.9 µM.

With `COC(=O)[C@@H](COC(=O)/C=C/c1ccc(OC(C)=O)c(OC(C)=O)c1)NC(=O)/C=C/c1ccc(OC(C)=O)c(OC(C)=O)c1`, the EC50 is over 100 µM and the IC50 came out at 19.1 µM.

Take `COc1cc2cccc(NC(=O)c3cc(OC)c(OC)c(OC)c3Br)c2cc1OC`: the outcome was inactive.

Regarding `COc1ccc(CC#N)c(OCc2ccccc2)c1`, the EC50 was over 53.7 µM and the IC50 amounted to 17.8 µM.

Regarding `CC1CCn2c(=S)[nH]c3cccc(c32)N1` (configuration not stated), the EC50 is 42.7 µM and the IC50 was 182 µM.

With `CN(C)c1cc2ccccc2oc1=O`, the EC50 was over 692 µM and the IC50 was over 692 µM.

As to `CC1CC[C@@]23CCC4(C)[C@@](C=CC5[C@@]6(C)CCC(=O)C(C)(C)C6CC[C@]54C)(OC2=O)[C@@H]3[C@H]1C` (some centres not stated), the outcome was inactive.

For the compound `c1ccc2[nH]c(C3=NCCN3)nc2c1`, the EC50 is over 53.7 µM and the IC50 is over 53.7 µM.

For `CCOC(=O)c1sc2c(c1OC(=O)c1cc(OC)c(OC)c(OC)c1)c(=O)n(-c1ccccc1)c(=S)n2-c1ccccc1`, the EC50 was over 200 µM and the IC50 came out at 4.47 µM.

For `CC(=O)O[C@H]1CCC2[C@@H]3CCC4C(=O)c5[nH]ncc5C[C@]4(C)C3CC[C@@]21C` (some centres not stated), the EC50 is over 87.1 µM and the IC50 was over 87.1 µM.

Regarding `OC1c2ccccc2CC12Cc1ccccc1C2` (configuration not stated), the EC50 is over 200 µM and the IC50 worked out at 145 µM.

As to `C1=Nc2ccc(cc2)-c2ccc(cc2)N=Cc2ccc(cc2)OCc2cccc(n2)COc2ccc1cc2`, the EC50 is over 100 µM and the IC50 was over 100 µM.

For `O=[N+]([O-])c1ccc2nc(/C=C(\O)c3ccc(Cl)cc3)c(/C=C(\O)c3ccc(Cl)cc3)nc2c1`, the EC50 is over 200 µM and the IC50 was 89.1 µM.

Regarding `C=CCOCCC(CC=C)C(=O)CC(=O)OC` (configuration not stated), the EC50 is over 251 µM and the IC50 is 195 µM.

As to `CC12CCCN1C(=O)C1(C)CCCN1C2=O` (configuration not stated), the EC50 is over 200 µM and the IC50 is over 200 µM.

With `S=C(N1CCN(c2ccc(Cl)c(Cl)c2)CC1)N1CCN(c2ccc(Cl)c(Cl)c2)CC1`, the EC50 is over 200 µM and the IC50 was found to be 10 µM.

For `Cc1cccc(C(C)C)c1NC(=O)C(=O)CC(=O)c1sc(Nc2ccccc2Cl)nc1C`, the EC50 was over 200 µM and the IC50 is over 200 µM.

As for `CC(=O)NCCSSCc1ccccc1CS(=O)O`, the EC50 was over 200 µM and the IC50 was 105 µM.

In the case of `C[C@H]1O[C@@H](C(C)(C)C)OC(=O)[C@@H]1C(OC(=O)c1ccccc1)c1cccc2ccccc12` (some centres not stated), the EC50 was over 200 µM and the IC50 came to 83.2 µM.

As for `O=C(O)CN1C(=O)c2ccc(NC(=O)C(=O)O)cc2S1(=O)=O`, the EC50 was over 200 µM and the half-maximal inhibitory concentration (IC50) was over 200 µM.

Consider `COC(=O)N1CC(=O)C(C(=O)NC23CC4CC(CC(C4)C2)C3)C1` (configuration not stated), for which the EC50 was over 776 µM and the IC50 was 141 µM.

Take `CC1CCC23COC(=O)C2C(O)CCC3C1(C)CC(O)c1ccoc1` (configuration not stated): the EC50 was over 145 µM and the IC50 is over 145 µM.

For the compound `COc1ccc(/C=C2\Cc3ccccc3C2=O)cc1`, the EC50 was over 20 µM and the IC50 is over 20 µM.

For the compound `CCN(C(=O)c1ccccc1C)C(c1ccccc1)P(=O)(c1ccccc1)c1ccccc1` (configuration not stated), the outcome was inactive.

`COC1OC(CCC2NC(CO)C(O)C(O)C2O)C(O)C(O)C1O` (configuration not stated): the EC50 is over 200 µM and the IC50 was over 200 µM.

Regarding `c1ccc(-c2ccccc2SSc2ccccc2-c2ccccc2)cc1`, the EC50 is over 200 µM and the IC50 came to 5.37 µM.

Regarding `O=C1c2cccnc2-c2nccc3c2c1nc1cc(Br)ccc13`, the EC50 was over 2.69 µM and the IC50 is 0.132 µM.

In the case of `O=C(O)C1=CC(=C(c2ccc(O)c(C(=O)O)c2)c2ccc(O)c(C(=O)O)c2)C=C(Cc2ccc(O)c(C(=O)O)c2)C1=O`, the EC50 was over 1200 µM and the IC50 worked out at 195 µM.

With `COc1cc(Oc2nc3ccccc3nc2C(=O)O)cc(OC)c1OC`, the EC50 was over 200 µM and the IC50 was over 200 µM.

For the compound `Cc1ccc([PH+](CC[PH+](c2ccccc2)c2ccccc2)c2ccc(C)cc2)cc1.Cc1ccc([PH+](CC[PH+](c2ccccc2)c2ccccc2)c2ccc(C)cc2)cc1.[Pt]`, the EC50 was over 6.92 µM and the IC50 came to 3.8 µM.

Take `C=C(CN)CO[Si](C)(C)C(C)(C)C`: the EC50 is over 200 µM and the IC50 worked out at 110 µM.

Regarding `COC(=O)CC1(C)CCC2(OC(CC(C)=O)C3C(C)(C)CCC[C@@]32C)O1` (some centres not stated), the EC50 is over 200 µM and the IC50 was found to be 141 µM.

With `Cc1ccc(C2(c3ccc(C)cc3)SC(=C(C#N)C#N)c3ccccc32)cc1`, the EC50 was over 200 µM and the IC50 is over 200 µM.

With `COc1ccc(N2C(=O)/C(=C/c3ccc(N(CCC#N)CCC#N)cc3)N=C2c2ccccc2)cc1`, the EC50 is over 200 µM and the 50% inhibitory concentration (IC50) is over 200 µM.

Consider `COc1ccc2c(=O)c(-c3cc4c(cc3OC)OCO4)coc2c1`, for which the EC50 was over 200 µM and the IC50 was over 200 µM.

As for `COc1cc2c(c(OC)c1OC)CCc1cnoc1-2`, the EC50 is over 257 µM and the IC50 is over 100 µM.

For the compound `Cc1ccc2c(n1)NC(=O)C(Cc1ccccc1)(N=[N+]=[N-])C2=O` (configuration not stated), the EC50 is over 200 µM and the IC50 was over 200 µM.

With `Nc1nc(=O)nc2[nH]c3c4cccc5cccc(c3nc12)c54`, the EC50 was over 200 µM; the IC50 is 141 µM and > 200 µM.

Regarding `C/C(O)=C(/C=NC(=S)c1ccncc1)C(=O)Nc1ccccc1`, the EC50 is over 200 µM and the IC50 was over 200 µM.

With `Nc1ccc(Nc2cc(=O)[nH]c(=O)[nH]2)cc1Cl`, the EC50 is over 200 µM and the IC50 is over 200 µM.

In the case of `NC(=O)c1ccccc1NC(=O)C(=O)Cc1nc2ccccc2[nH]c1=O`, the EC50 is over 269 µM and the IC50 is over 269 µM.

Consider `CCOC(=O)NC(=O)c1cn(CCN2CCN(C(=O)CNC(=O)CNC(=O)Cn3cc(C(=O)NC(=O)OCC)c(=O)[nH]c3=O)CC2)c(=O)[nH]c1=O`, for which the result was inactive.

Take `COc1ccc(C(=O)O)c(Cc2cccc3ccccc23)c1`: the result was inactive.

A word on the EC50: it is the midpoint of the concentration-response curve. For orientation: IC50 means the concentration that inhibits the measured activity by half. Low readings indicate greater potency, high ones weaker potency.
